Measured values as given in patent US4250255A, “Assay method for isoenzyme activity” (Eastman Kodak Company, priority 1977, dated 1981).
pIC50: −log10 of the molar value. Structures can show the parent of a compound that is named as a salt. Where two headings read alike, the source gives them in different places.

Key:
LD1 [1] = experiment: LDH activity assay with amphiphile, LDH isoenzymes; assay type: biochemical, porcine; conditions: about 10 mM CTAB; FIG. 5
Protocol: (§1) 3. Beef heart LDH (Sigma Chemical Co., Type III), rabbit muscle LDH (Sigma Chemical Co., Type V) and porcine LDH, LD1, LD2, LD3, LD4 and LD5 in the form of ammonium sulfate suspensions were used for these examples.
(§2) The assay for LDH activity in both the absence and presence of surfactant was conducted as follows. […] The resulting solution contains approximately 5 units/ml. […] To the equilibrated solution […]. of the enzyme solution was added, and the cuvette was rapidly shaken while covering the top of the cuvette with a small piece of Parafilm® and placed back into the spectrophotometer.
(§3) Amphiphile solutions were prepared by weighing out a given amount of amphiphile, e.g., 100 mg, and preparing a stock solution in 30 mM sodium phosphate buffer in 100 ml. volumetric flask. Solutions of lower amphiphile concentration were prepared by making the appropriate dilutions from the stock solution.

LD5 [2] = experiment: LDH activity assay with amphiphile, LDH isoenzymes; assay type: biochemical, porcine; conditions: even at 10 mM; LD5 from rabbit and hog show almost identical profiles; FIG. 5
Protocol: as §1, §2, §3

LD1 [3] = molecular target: T1, LD1 (Sus scrofa, UniProt P00336); experiment: Effect of cationic amphiphiles on the activity of LDH isoenzymes (Table 1); assay type: biochemical; conditions: 30 mM sodium phosphate buffer pH 7.4, 25° C.; for pIC50: read-out: Amphiphile conc. Req'd for 50% Inactivation of Specified Isoenzyme (LD1)
Protocol: as §2, §3
A number of cationic amphiphiles were investigated for specific inactivation of LD1 in the presence of LD5 and these compounds are listed in Table 1.

human LD1 = molecular target: T2, human LD1 (Homo sapiens, UniProt P07195); experiment: LDH assay with human enzyme-containing serum; assay type: biochemical; conditions: 2.5 mM CTAB; pH 7.8; 14% protein
T2 construct: A specific human LDH isoenzyme (obtained from liver homogenate or red blood cell); from tissue; host or cells: human liver homogenate or red blood cell
Protocol: as §2
(§4) Pooled human serum, kept frozen until ready for use, was raised to pH 11.5 until all LDH activity was destroyed. The pH was then adjusted to 7.4 and the serum was again assayed for LDH activity to ensure that no LDH had been reactivated. A specific human LDH isoenzyme (obtained from liver homogenate or red blood cell) was then added to the pool to give an enzyme concentration of ~100 U/l. The spiked serum samples were refrigerated between uses and respiked when necessary. Fresh serum was prepared weekly.
(§5) 8. The assay method used is the same as described above for Examples 1-12, except that the test samples consisted of 25-30 μl of serum instead of 100 μl of aqueous enzyme solution.

human LD2 = molecular target: T3, human LD2 (Homo sapiens, UniProt P00338+P07195); experiment: LDH assay with human enzyme-containing serum; assay type: biochemical; conditions: 2.5 mM CTAB; pH 7.8; 14% protein
T3 construct: A specific human LDH isoenzyme (obtained from liver homogenate or red blood cell); from tissue; host or cells: human liver homogenate or red blood cell
Protocol: as §2, §4, §5

human LD4 = molecular target: T4, human LD4 (Homo sapiens, UniProt P00338+P07195); experiment: LDH assay with human enzyme-containing serum; assay type: biochemical
T4 construct: A specific human LDH isoenzyme (obtained from liver homogenate or red blood cell); from tissue; host or cells: human liver homogenate or red blood cell
Protocol: as §2, §4, §5

human LD5 [4] = molecular target: T5, human LD5 (Homo sapiens, UniProt P00338); experiment: LDH assay with human enzyme-containing serum; assay type: biochemical
T5 construct: A specific human LDH isoenzyme (obtained from liver homogenate or red blood cell); from tissue; host or cells: human liver homogenate or red blood cell
Protocol: as §2, §4, §5

human LD5 [5] = experiment: LDH assay with human enzyme-containing serum; assay type: biochemical; conditions: pH 7.4; FIG. 15
Protocol: as §2, §4, §5

human LD1, LD2 and LD3 = experiment: LDH assay with human serum sample containing LD1, LD2 and LD3; assay type: biochemical; conditions: CTAB 0.002-0.004 M; 25 μl serum; FIG. 13
Protocol: as §2, §4, §5

cMDH = molecular target: T6, cMDH (Sus scrofa, UniProt P11708); experiment: Assay for MDH (oxalacetic acid + NADH, 340 nm); assay type: biochemical, porcine
T6 construct: Porcine cMDH and mMDH were used as ammonium sulfate suspensions
Protocol: (§6) 1. Porcine cMDH and mMDH were used as ammonium sulfate suspensions. Typically, 5 μl of the enzyme stock solutions were diluted to 10 ml with 30 mM phosphate buffer, pH 7.4, prior to use. The resulting enzyme solutions were stored in ice water; 100 μl aliquots were withdrawn for assay except where another amount is specified.
(§7) The assay is based on conversion of oxalacetic acid to malate in the presence of NADH and MDH. The assay was made [formula] in 30 mM phosphate buffer, at ambient temperature, with and without appropriate surfactant concentrations, and contained 0.17 mM OAA and 0.13 mM NADH. The reaction was followed by monitoring the decrease in absorbance at 340 nm using either a Beckman 25 or Cary 118 spectrophotometer. The OAA solutions were stored over ice to prevent hydrolysis to pyruvic acid.

mMDH = molecular target: T7, mMDH (Sus scrofa, UniProt P00346); experiment: Assay for MDH (oxalacetic acid + NADH, 340 nm); assay type: biochemical, porcine
T7 construct: Porcine cMDH and mMDH were used as ammonium sulfate suspensions
T7 sequence (P00346 25-338): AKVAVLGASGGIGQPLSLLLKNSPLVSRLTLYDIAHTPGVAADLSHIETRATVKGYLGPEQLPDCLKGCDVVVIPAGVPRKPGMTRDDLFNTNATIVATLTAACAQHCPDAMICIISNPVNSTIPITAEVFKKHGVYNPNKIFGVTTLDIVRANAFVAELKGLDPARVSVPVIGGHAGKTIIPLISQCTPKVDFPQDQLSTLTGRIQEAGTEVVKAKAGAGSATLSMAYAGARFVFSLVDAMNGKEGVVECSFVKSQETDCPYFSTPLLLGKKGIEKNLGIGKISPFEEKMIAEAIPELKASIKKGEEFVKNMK
Protocol: as §6, §7

[6] = system: isoenzymes of creatinine phosphokinase (CPK); experiment: Conventional coupled CPK assay (hexokinase, glucose-6-phosphate dehydrogenase); assay type: biochemical; conditions: conventional assay with coupled reactions, hexokinase and glucose-6-phosphate dehydrogenase
Description: Of course, the particular amphiphile used and the concentration at which it is used will depend upon the particular isoenzyme being assayed. Not every amphiphile will have a discriminatory effect on the activity of isoenzymes in each isoenzyme system.

LD1 and LD5 = experiment: Screening of amphiphiles for ability to discriminate between LD1 and LD5; conditions: for Effectiveness (LDH isoenzyme inhibition specificity, LD1 vs LD5): range of amphiphile concentrations, relative activity vs buffer
Protocol: A series of solutions was prepared covering a range of concentrations for each amphiphile to be tested. The activities of both LD1 and LD5 were determined in the presence of the various concentrations of each amphiphile and compared with enzyme activities in buffer (relative activity).
Enzyme activity in the presence and absence of amphiphile was measured by the following procedure: Stock solutions of NADH (4 mM) and pyruvate (40 mM) were prepared daily in 30 mM sodium phosphate buffer, pH 7.4. Enzyme solutions were prepared daily by withdrawing 5 μl of the stock enzyme solutions with a Hamilton syringe and diluting to 5 ml with 30 mM sodium phosphate buffer. (The resulting solution contains approximately 5 U of enzyme/ml.) The enzyme assay was run by pipetting 2.7 ml of buffer or buffer surfactant solution into a 10 mm path length quartz cuvette, and 100 μl each of NADH and pyruvate stock solutions were added. […] Enzyme solution was added with good mixing; the absorbance decrease at 340 nm was measured as a function of time. The rate of the reaction was determined by measuring the slope of the initial absorbance decrease, i.e., within the first 50 seconds of the reaction.

LD5 [7] = molecular target: LD5 (Sus scrofa, UniProt P00339); experiment: LDH activity assay with amphiphile, LDH isoenzymes; assay type: biochemical, porcine; set-up: LD5 from two different species, i.e., rabbit muscle and hog muscle; from tissue; host or cells: hog muscle
Protocol: as §1, §2, §3

LD2 = molecular target: T8, LD2 (Sus scrofa, UniProt P00336+P00339); experiment: LDH activity assay with amphiphile, LDH isoenzymes; assay type: biochemical, porcine
T8 construct: porcine LDH, LD1, LD2, LD3, LD4 and LD5 in the form of ammonium sulfate suspensions
Protocol: as §1, §2, §3

LD3 = molecular target: T9, LD3 (Sus scrofa, UniProt P00336+P00339); experiment: LDH activity assay with amphiphile, LDH isoenzymes; assay type: biochemical, porcine
T9 construct: porcine LDH, LD1, LD2, LD3, LD4 and LD5 in the form of ammonium sulfate suspensions
Protocol: as §1, §2, §3

LD4 = molecular target: T10, LD4 (Sus scrofa, UniProt P00336+P00339); experiment: LDH activity assay with amphiphile, LDH isoenzymes; assay type: biochemical, porcine
T10 construct: porcine LDH, LD1, LD2, LD3, LD4 and LD5 in the form of ammonium sulfate suspensions
Protocol: as §1, §2, §3

LD1 [8] = molecular target: T1, LD1; experiment: LDH activity assay with amphiphile, LDH isoenzymes; assay type: biochemical, porcine; set-up: porcine LDH, LD1, LD2, LD3, LD4 and LD5 in the form of ammonium sulfate suspensions
Protocol: as §1, §2, §3

[9] = molecular target: T11, LDH isoenzymes (LD5 in the presence of LD1) (Oryctolagus cuniculus, UniProt P13491); experiment: Anionic amphiphiles tested for specific interaction with LDH isoenzymes (Table 2); assay type: biochemical
T11 construct: LD1 (LDHB tetramer) only as comparison
Protocol: as §2, §3
A number of anionic amphiphiles were investigated for specific inactivation of LD5 in the presence of LD1 and these compounds are listed in Table 2.

[10] = 2.5 mM CTAB, pH 7.8, 14% protein
[11] = rate measurements after 2 minutes, FIG. 18

## CCCCCCCCCCCCCCCC[N+](C)(C)C.[Br-] [CTAB, hexadecyltrimethylammonium bromide]
LD1 [1]
  LD1 susceptibility to inactivation at high surfactant concentrations: less susceptible to inactivation
LD5 [2]
  control LD5 activity lost in CTAB solutions: No more than 30%
LD1 [3]
  pIC50: 3.05
Human LD1
  human LD1 activity: completely inactivated
Human LD2
  human LD2 activity: completely inactivated
Human LD4; [10]
  human LD4 activity: fully active
Human LD4; 3 mM CTAB in 14% protein, pH 7.75-7.85, 30 μl serum
  human LD4 activity: completely inactivated
Human LD5 [4]; [10]
  human LD5 activity: fully active
Human LD5 [4]; CTAB 0.002-0.004 M, 25 μl serum, FIG. 13
  retained activity of human LD5: at least 60%
Human LD5 [4]; read-out: human LD5 activity
  activity at 3000 µM: > 100%
Human LD5 [5]
  discrimination between human LD5 and LD4: inadequate discrimination
Human LD1, LD2 and LD3
  activity of human serum sample containing LD1, LD2 and LD3: completely inactivated
cMDH; 0.3 mM CTAB, initial reaction rates, FIG. 16
  cMDH activity: essentially completely inactivated
cMDH; [11]
  cMDH inactivation with increased exposure time: more effectively inactivates cMDH
mMDH; pH 7.4, 0.3 mM CTAB, initial reaction rates, FIG. 16, read-out: mMDH activity relative to a buffer control
  remaining activity at 300 µM: 100%
mMDH; [11]
  effect on mMDH with increased exposure time: no effect
[6]
  discriminatory effect on the activities of the isoenzymes of CPK: do not appear to have any discriminatory effect
LD1 and LD5
  discrimination of LDH isoenzymes: excellent discriminators
LD5 [7]; pH 7.4, read-out: activity of LD5 in CTAB, % of the buffer value
  activity at 275 µM: 90 to 95%

## CCCCCCCCCCCCCCCCCCNC(=O)CC(C(=O)O)S(=O)(=O)O (stereo not shown) [Disodium N-octadecylsulfosuccinamate]
LD1 and LD5
  Effectiveness (LDH isoenzyme inhibition specificity, LD1 vs LD5): ++

## CCCCCCCCCCCCN [Dodecylamine . HCl]
LD1 [3]
  pIC50: 1.89
LD1 and LD5
  Effectiveness (LDH isoenzyme inhibition specificity, LD1 vs LD5): ++

## CCCCCCCCCCCC[N+](C)(C)C.[Br-] [Dodecyltrimethylammonium bromide]
LD1 [3]
  pIC50: 2.00
LD1 and LD5
  Effectiveness (LDH isoenzyme inhibition specificity, LD1 vs LD5): -

## CC[n+]1ccccc1.[Br-] [N-Ethylpyridinium bromide]
LD1 [3]
  Amphiphile conc. Req'd for 50% Inactivation of Specified Isoenzyme (LD1): no effect

## CCCCCCCCCCCCCCCC(=O)NCCC[N+](C)(C)CCO.[Cl-] [N-β-hydroxyethyl-N,N-dimethyl-N-3-palmitamidopropylammonium chloride]
LD2; FIG. 11
  effect on LD2 activity: inactivated mostly
LD3; FIG. 11
  effect on LD3 activity: inactivated mostly
LD4; FIG. 11
  retention of LD4 activity: ~ 60%
LD1 and LD5
  Effectiveness (LDH isoenzyme inhibition specificity, LD1 vs LD5): ++
LD1 [8]; FIG. 11
  effect on LD1 activity: inactivated mostly
LD5 [7]; FIG. 11
  retention of LD5 activity: 90%

## CCCCCCCCC[N+](C)(C)C [Nonatrimethylammonium bromide]
LD1 [3]
  pIC50: 3.46
LD1 and LD5
  Effectiveness (LDH isoenzyme inhibition specificity, LD1 vs LD5): -

## CCCCCCCCCCCCOS(=O)(=O)[O-].[Na+] [SDS, sodium dodecylsulfate]
LD2; pH 7.4, read-out: LD2 activity
  activity at 3500 µM: 0%
LD2; pH 7.4, read-out: LD2 activity remaining
  remaining activity at 1500 µM: 65%
LD3; pH 7.4, read-out: LD3 activity remaining
  remaining activity at 1500 µM: 50%
LD4; 1.5 mM SDS, FIG. 9
  LD4 activity: nil
[9]
  Interaction (specific inactivation of LD5 in the presence of LD1): useful positive results
[9]; listed as sodium dodecylsulfate
  Interaction (specific inactivation of LD5 in the presence of LD1): specific
LD1 and LD5
  Effectiveness (LDH isoenzyme inhibition specificity, LD1 vs LD5): ++
LD1 [8]; pH 7.4, read-out: LD1 activity remaining
  remaining activity at 1500 µM: 95%
LD1 [8]; pH 7.4, read-out: LD1 activity, % of buffer control
  remaining activity at 3500 µM: 78%
LD5 [7]; 1.5 mM SDS, FIG. 9
  LD5 activity: nil

## CCCCCCCC/C=C\CCCCCCCC(=O)N(C)CCS(=O)(=O)O [Sodium N-methyl-N-oleoyl taurate]
LD1 and LD5
  Effectiveness (LDH isoenzyme inhibition specificity, LD1 vs LD5): 0

## CCCCOS(=O)(=O)[O-].[Na+] [Sodium butyl sulfate]
LD1 and LD5
  Effectiveness (LDH isoenzyme inhibition specificity, LD1 vs LD5): 0

## C[C@H](CCC(=O)O)[C@H]1CC[C@H]2[C@@H]3C(=O)C[C@@H]4CC(=O)CC[C@]4(C)[C@H]3CC(=O)[C@]12C [Sodium dehydrocholate]
LD1 and LD5
  Effectiveness (LDH isoenzyme inhibition specificity, LD1 vs LD5): 0
